# Experimental data as given in PubChem BioAssay (NCI).
#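 Grown in 96-well plates, cells were treated for 48 hours with each compound at five concentrations. Insufficient inhibition: endpoint recorded as highest concentration tested. GI50: concentration for 50% inhibition of growth. TGI marks complete inhibition of growth.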
# Legend:
# Assay in all cases: NCI-60 cell line screen, 48 h
# MDA-MB-435 = test system: MDA-MB-435
# UO-31 renal = test system: UO-31 renal
# OVCAR-8 ovarian = test system: OVCAR-8 ovarian
# HCC-2998 colon = test system: HCC-2998 colon
# HT29 colon = test system: HT29 colon
# OVCAR-3 ovarian = test system: OVCAR-3 ovarian
# SNB-19 CNS = test system: SNB-19 CNS
# HL-60(TB) leukemia = test system: HL-60(TB) leukemia
# NCI-H23 lung = test system: NCI-H23 lung
# A498 renal = test system: A498 renal
# MOLT-4 leukemia = test system: MOLT-4 leukemia
# CAKI-1 renal = test system: CAKI-1 renal
# COLO 205 colon = test system: COLO 205 colon
# IGROV1 ovarian = test system: IGROV1 ovarian
# SF-539 CNS = test system: SF-539 CNS
# 786-0 renal = test system: 786-0 renal
# PC-3 prostate = test system: PC-3 prostate
# DU-145 prostate = test system: DU-145 prostate
# SF-268 CNS = test system: SF-268 CNS
# TK-10 renal = test system: TK-10 renal
# HOP-62 NSCLC = test system: HOP-62 NSCLC
# NCI-H226 lung = test system: NCI-H226 lung
# SK-OV-3 ovarian = test system: SK-OV-3 ovarian
# HCT-116 colon = test system: HCT-116 colon
# SW-620 colon = test system: SW-620 colon
# OVCAR-4 ovarian = test system: OVCAR-4 ovarian
# SF-295 CNS = test system: SF-295 CNS
# HOP-92 NSCLC = test system: HOP-92 NSCLC
# M14 melanoma = test system: M14 melanoma
# HCT-15 colon = test system: HCT-15 colon
# UACC-257 melanoma = test system: UACC-257 melanoma
# SK-MEL-5 melanoma = test system: SK-MEL-5 melanoma
# T-47D breast = test system: T-47D breast
# A549 NSCLC = test system: A549 NSCLC
# CCRF-CEM leukemia = test system: CCRF-CEM leukemia
# ACHN renal = test system: ACHN renal
# SN12C renal = test system: SN12C renal
# MDA-MB-231 breast = test system: MDA-MB-231 breast
# EKVX NSCLC = test system: EKVX NSCLC
# SNB-75 CNS = test system: SNB-75 CNS
# K-562 leukemia = test system: K-562 leukemia
# SK-MEL-2 melanoma = test system: SK-MEL-2 melanoma
# NCI/ADR-RES ovarian = test system: NCI/ADR-RES ovarian
# SR leukemia = test system: SR leukemia
# HS 578T breast = test system: HS 578T breast
# BT-549 breast = test system: BT-549 breast
# U251 CNS = test system: U251 CNS
# SK-MEL-28 melanoma = test system: SK-MEL-28 melanoma
# MCF7 breast = test system: MCF7 breast
# RPMI-8226 leukemia = test system: RPMI-8226 leukemia
# NCI-H460 lung = test system: NCI-H460 lung
# MALME-3M melanoma = test system: MALME-3M melanoma
# NCI-H522 lung = test system: NCI-H522 lung
# KM12 colon = test system: KM12 colon
# UACC-62 melanoma = test system: UACC-62 melanoma
# OVCAR-5 ovarian = test system: OVCAR-5 ovarian
# RXF 393 renal = test system: RXF 393 renal
# LOX IMVI melanoma = test system: LOX IMVI melanoma
smiles,measurement,setting,value
COc1ccc(/C=N/NC(=O)c2[nH]c3ccc(Br)cc3c2-c2ccccc2)s1,GI50,MDA-MB-435,65.6 nM
same,TGI,MDA-MB-435,153 nM
same,GI50,UO-31 renal,188 nM
same,TGI,UO-31 renal,> 100000 nM
same,GI50,OVCAR-8 ovarian,59.3 nM
same,GI50,HCC-2998 colon,349 nM
same,TGI,HCC-2998 colon,> 71600 nM
same,GI50,HT29 colon,84.6 nM
same,TGI,HT29 colon,3290 nM
same,GI50,OVCAR-3 ovarian,249 nM
same,TGI,OVCAR-3 ovarian,823 nM
same,GI50,SNB-19 CNS,275 nM
same,TGI,SNB-19 CNS,> 95200 nM
same,GI50,HL-60(TB) leukemia,77.8 nM
same,TGI,HL-60(TB) leukemia,2690 nM
same,GI50,NCI-H23 lung,124 nM
same,TGI,NCI-H23 lung,> 47700 nM
same,GI50,A498 renal,33800 nM
same,TGI,A498 renal,> 100000 nM
same,GI50,MOLT-4 leukemia,113 nM
same,TGI,MOLT-4 leukemia,> 100000 nM
same,GI50,CAKI-1 renal,168 nM
same,TGI,CAKI-1 renal,> 57300 nM
same,GI50,COLO 205 colon,195 nM
same,TGI,COLO 205 colon,375 nM
same,GI50,IGROV1 ovarian,123 nM
same,TGI,IGROV1 ovarian,25200 nM
same,GI50,SF-539 CNS,72.4 nM
same,TGI,SF-539 CNS,206 nM
same,GI50,786-0 renal,152 nM
same,TGI,786-0 renal,> 100000 nM
same,GI50,PC-3 prostate,263 nM
same,TGI,PC-3 prostate,> 89400 nM
same,GI50,DU-145 prostate,135 nM
same,TGI,DU-145 prostate,45700 nM
same,GI50,SF-268 CNS,532 nM
same,TGI,SF-268 CNS,> 100000 nM
same,GI50,TK-10 renal,3720 nM
same,TGI,TK-10 renal,> 75100 nM
same,GI50,HOP-62 NSCLC,455 nM
same,TGI,HOP-62 NSCLC,> 87800 nM
same,GI50,NCI-H226 lung,115 nM
same,TGI,NCI-H226 lung,30200 nM
same,GI50,SK-OV-3 ovarian,219 nM
same,TGI,SK-OV-3 ovarian,99400 nM
same,GI50,HCT-116 colon,103 nM
same,GI50,SW-620 colon,147 nM
same,TGI,SW-620 colon,> 100000 nM
same,GI50,OVCAR-4 ovarian,224 nM
same,TGI,OVCAR-4 ovarian,57600 nM
same,GI50,SF-295 CNS,106 nM
same,TGI,SF-295 CNS,15100 nM
same,GI50,HOP-92 NSCLC,1280 nM
same,TGI,HOP-92 NSCLC,> 100000 nM
same,GI50,M14 melanoma,142 nM
same,TGI,M14 melanoma,> 100000 nM
same,GI50,HCT-15 colon,141 nM
same,TGI,HCT-15 colon,> 37000 nM
same,GI50,UACC-257 melanoma,283 nM
same,TGI,UACC-257 melanoma,> 100000 nM
same,GI50,SK-MEL-5 melanoma,101 nM
same,TGI,SK-MEL-5 melanoma,394 nM
same,GI50,T-47D breast,7100 nM
same,TGI,T-47D breast,> 100000 nM
same,GI50,A549 NSCLC,160 nM
same,TGI,A549 NSCLC,> 100000 nM
same,GI50,CCRF-CEM leukemia,121 nM
same,TGI,CCRF-CEM leukemia,> 100000 nM
same,GI50,ACHN renal,169 nM
same,TGI,ACHN renal,> 52800 nM
same,GI50,SN12C renal,116 nM
same,TGI,SN12C renal,> 42100 nM
same,GI50,MDA-MB-231 breast,336 nM
same,TGI,MDA-MB-231 breast,15700 nM
same,GI50,EKVX NSCLC,3550 nM
same,TGI,EKVX NSCLC,> 100000 nM
same,GI50,SNB-75 CNS,148 nM
same,TGI,SNB-75 CNS,20000 nM
same,GI50,K-562 leukemia,113 nM
same,TGI,K-562 leukemia,> 100000 nM
same,GI50,SK-MEL-2 melanoma,93.5 nM
same,TGI,SK-MEL-2 melanoma,36400 nM
same,GI50,NCI/ADR-RES ovarian,39.8 nM
same,TGI,NCI/ADR-RES ovarian,4360 nM
same,GI50,SR leukemia,102 nM
same,TGI,SR leukemia,> 100000 nM
same,GI50,HS 578T breast,1140 nM
same,TGI,HS 578T breast,> 31400 nM
same,GI50,BT-549 breast,88.5 nM
same,TGI,BT-549 breast,367 nM
same,GI50,U251 CNS,259 nM
same,TGI,U251 CNS,> 100000 nM
same,GI50,SK-MEL-28 melanoma,745 nM
same,TGI,SK-MEL-28 melanoma,> 100000 nM
same,GI50,MCF7 breast,110 nM
same,TGI,MCF7 breast,14400 nM
same,GI50,RPMI-8226 leukemia,118 nM
same,TGI,RPMI-8226 leukemia,> 100000 nM
same,GI50,NCI-H460 lung,246 nM
same,TGI,NCI-H460 lung,3630 nM
same,GI50,MALME-3M melanoma,148 nM
same,TGI,MALME-3M melanoma,> 70300 nM
same,GI50,NCI-H522 lung,19.3 nM
same,TGI,NCI-H522 lung,54.4 nM
same,GI50,KM12 colon,301 nM
same,TGI,KM12 colon,> 60500 nM
same,GI50,UACC-62 melanoma,146 nM
same,TGI,UACC-62 melanoma,> 51500 nM
same,GI50,OVCAR-5 ovarian,136 nM
same,TGI,OVCAR-5 ovarian,> 100000 nM
same,GI50,RXF 393 renal,299 nM
same,TGI,RXF 393 renal,910 nM
same,GI50,LOX IMVI melanoma,38.4 nM
same,TGI,LOX IMVI melanoma,> 100000 nM
